According to ChEMBL document CHEMBL1157443, “Synthesis and in vitro anti-hepatitis B virus activities of 4-aryl-6-chloro-quinolin-2-one and 5-aryl-7-chloro-1,4-benzodiazepine derivatives” (Bioorg Med Chem Lett, 2008):

Tests used:
Hepatitis B virus [1] = test: Antiviral activity against hepatitis B virus infected Hep G2.2.15 cells assessed as inhibition of HBeAg secretion; format: functional, organism-based; conditions: HepG2 2.2.15
[2] = Cytotoxicity against human Hep G2.2.15 cells; format: cell-based, HepG2 2.2.15
[3] = Selectivity index, ratio of CC50 for human Hep G2.2.15 cells to IC50 for HBV e antigen secretion; format: functional
Hepatitis B virus [4] = test: Antiviral activity against hepatitis B virus infected Hep G2.2.15 cells assessed as inhibition of HBsAg secretion; format: functional, organism-based; conditions: HepG2 2.2.15
[5] = Selectivity index, ratio of CC50 for human Hep G2.2.15 cells to IC50 for HBV surface antigen secretion; format: functional

SMILES | IC50 (Hepatitis B virus [1]) [µM] | CC50 [2] [µM] | Ratio CC50/IC50 [3] | IC50 (Hepatitis B virus [4]) [µM] | Ratio CC50/IC50 [5]
O=c1[nH]c2ccc(Cl)cc2c(-c2ccccc2Cl)c1CCO | 449 | 1720 | 3.4 | 74 | 23
Nc1c(-c2ccccc2F)c2cc(Cl)ccc2[nH]c1=O | > 3610 | 767 | <1 | 56 | 14
O=C1CN=C(c2ccccc2)c2cc(Cl)ccc2N1 [NORDAZEPAM] | 835 | – | – | 255 | –
O=C1CN2OC2(c2ccccc2F)c2cc(Cl)ccc2N1 (stereo not given) | > 3260 | 346 | <1 | 195 | 1.8
CC(=O)Nc1c(-c2ccccc2)c2cc(Cl)ccc2[nH]c1=O | 1870 | 239 | <1 | 208 | 1.1
Nc1ccn([C@@H]2CS[C@H](CO)O2)c(=O)n1 [LAMIVUDINE] | – | 30000 | 1.2 | – | 2.6
CC(=O)Nc1c(-c2ccccc2F)c2cc(Cl)ccc2[nH]c1=O | 79 | 44 | <1 | 141 | <1
CC(=O)OC1N=C(c2ccccc2Cl)c2cc(Cl)ccc2NC1=O (stereo not given) | 1940 | 154 | <1 | 167 | <1
CC(=O)OC1N=C(c2ccccc2F)c2cc(Cl)ccc2NC1=O (stereo not given) | 1220 | 344 | <1 | 160 | 2.2
O=C1CN=C(c2ccccc2Cl)c2cc(Cl)ccc2N1 [DELORAZEPAM] | 4080 | 76 | <1 | 76 | <1
O=C1CN2OC2(c2ccccc2Cl)c2cc(Cl)ccc2N1 (stereo not given) | 4490 | 302 | <1 | 355 | <1
O=C1CN2OC2(c2ccccc2)c2cc(Cl)ccc2N1 (stereo not given) | > 3280 | 946 | <1 | 728 | 1.3
O=c1cc(-c2ccccc2F)c2cc(Cl)ccc2[nH]1 | 2220 | > 5460 | >2.4 | 2840 | >1.9
Nc1c(-c2ccccc2)c2cc(Cl)ccc2[nH]c1=O | > 3990 | 399 | <1 | 67 | 6
CC(=O)OC1N=C(c2ccccc2)c2cc(Cl)ccc2NC1=O (stereo not given) | > 4260 | 678 | <1 | 292 | 2.3
Nc1c(-c2ccccc2Cl)c2cc(Cl)ccc2[nH]c1=O | > 5470 | 341 | <1 | 341 | 1
O=c1cc(-c2ccccc2)c2cc(Cl)ccc2[nH]1 | > 4140 | 1250 | <1 | 485 | 2.6
O=C1CN=C(c2ccccc2F)c2cc(Cl)ccc2N1 | 5360 | 183 | <1 | 294 | <1
O=c1[nH]c2ccc(Cl)cc2c(-c2ccccc2)c1CCO | 950 | > 4910 | >5.2 | 300 | >16
O=c1[nH]c2ccc(Cl)cc2c(-c2ccccc2F)c1CCO | 545 | > 2990 | >5.5 | 187 | >16
CC(=O)Nc1c(-c2ccccc2Cl)c2cc(Cl)ccc2[nH]c1=O | 80 | 208 | 2.6 | 129 | 1.6
O=c1cc(-c2ccccc2Cl)c2cc(Cl)ccc2[nH]1 | > 6000 | 6000 | <1 | 752 | 8
